Results reported in patent publication US9879029B2, “ERK inhibitors” (Eli Lilly and Company, priority 2014, dated 2018).
pIC50: −log10 of the molar value.

Key:
ERK1 = target: T1, ERK1 (Homo sapiens, UniProt P27361); assay: ERK1 kinase assay (TR-FRET); type: biochemical; settings: Abs_IC50, ATP 10 μM; ±0.608, n=16
T1 construct: purchased Invitrogen PR5254B
Experimental: The purpose of this assay is to measure the ability of compounds to inhibit ERK1 kinase activity. Perform the ERK1 kinase assay in vitro using a TR-FRET assay. […] Incubate the reaction mixture at room temperature for 60 minutes. Stop the reaction by addition of 12.5 μL of stop buffer (10 mM EDTA, 2 nM Tb-anti-pATF2 (pThr71) antibody, Invitrogen, #PV4448) in TR-FRET dilution buffer (Invitrogen, # PV3574). Incubate the plates at room temperature for an additional 60 minutes and read on an ENVISION® (PerkinElmer) plate reader at the excitation wavelength 340 nm. Calculate the TR-FRET ratio by dividing the GFP acceptor emission signal (at 520 nm) by the Tb donor emission signal (at 495 nm). Calculate percent inhibition using compound treated wells relative to on-plate Max (DMSO control) and Min (No enzyme added) control wells TR-FRET ratio data {% inhibition=100−[(test compound−median Min)/(median Max−median Min)×100]}). Test all compounds at 10 concentrations (20 μM to 0.001 μM) using a 1:3 dilution scheme. Derive Abs_IC50 values by fitting percent inhibition and ten-point concentration data to a 4-parameter nonlinear logistic equation (equation 205) using ACTIVITYBASE® 7.3 (ID Business Solutions Limited).

ERK2 = target: T2, ERK2 (Homo sapiens, UniProt P28482); assay: ERK2 kinase assay (TR-FRET); type: biochemical; settings: Abs_IC50, ATP 10 μM; ±0.682, n=17
T2 construct: purchased Invitrogen PV3595B
Experimental: The purpose of this assay is to measure the ability of compounds to inhibit ERK2 kinase activity. Perform the ERK2 kinase assay in vitro using a TR-FRET assay. Start all reactions (12.5 μL) by adding 5 µL of ERK2 enzyme (Invitrogen, #PV3595B, final conc 50 ng/mL) plus substrate GFP-ATF2 (Invitrogen, #PV4445, final conc 0.2 μM), 5 µL of ATP solution (Invitrogen, #PV3227, final conc 10 μM) prepared in kinase buffer (50 mM Hepes pH 7.4, 5 mM MgCl2, 0.1 mM EGTA, 0.01% Triton X-100, 1 mM DTT) and 2.5 μL of testing compounds in DMSO solution ([…], v/v) in a 384-well PROXIPLATE™ (Perkin Elmer, #GRN6260). Incubate reactions at room temperature for 60 minutes. Stop reactions by addition of […] of stop buffer (10 mM EDTA, 2 nM Tb-anti-pATF2 (pThr71) antibody, Invitrogen, #PV4448) in TR-FRET dilution buffer (Invitrogen, # PV3574). Incubate the plates at room temperature for an additional 60 minutes and read ON ENVISION® (PerkinElmer) plate reader at the excitation wavelength of 340 nm. Calculate a TR-FRET ratio by dividing the GFP acceptor emission signal (at 520 nm) by the Tb donor emission signal (at 495 nm). Calculate percent inhibition using compound wells relative to on-plate Max (DMSO control) and Min (No enzyme added) control wells TR-FRET ratio data {% inhibition=100−[(test compound−median Min)/(median Max−Min)×100]}. […]

[1] = system: human melanoma cells A-375; assay: Xenograft tumor model A-375; type: in vivo, female NIH nude rats; settings: oral; for Regression (%): p <0.001
Experimental: (§1) The purpose of this assay is to measure reduction in tumor volume in response to test compound administration. Expand human colorectal cancer cells HCT116 (ATCC, #CCL-247) or human non-small cell lung cancer cells NCI-H358 (ATCC, # CRL-5807) in culture, harvest and inject 5×10e^6 cells in 200 μL of 1:1 HBSS+matrigel solution subcutaneously on to the rear right flank of female athymic nude mice (22-25 gm, Harlan Laboratories). Expand human pancreatic cancer cells SW1990 (ATCC, # CRL-2172) in culture, harvest and inject 2×10e^6 cells in 200 μL of 1:1 HBSS+matrigel solution subcutaneously on to the rear right flank of female athymic nude mice (22-25 gm, Harlan Laboratories). Expand human pancreatic cancer cells MIA PACA-2 (ATCC, # CRL-1420) or human non-small cell lung cancer cells A549 (ATCC, # CCl-185) in culture, harvest and inject 5×10e^6 cells in 200 μL of 1:1 HBSS+matrigel solution subcutaneously on to the rear right flank of female CB-17 SCID mice (22-25 gm, Charles River Laboratories International Inc.). Expand human melanoma cells A-375 (ATCC, # CRL-1619) in culture, harvest and inject 5×10e^6 cells in 200 μL of 1:1 HBSS+matrigel solution subcutaneously on to the rear right flank of female NIH nude rats (140-160 gm, Taconic Farms). Measure tumor growth and body weight twice per week beginning the seventh day after the implantation. When tumor sizes reach 200-400 mm^3, randomize animals and group into groups of eight to ten animals. Prepare test compound in an appropriate vehicle (vehicle: 1% HEC/0.25% Tween 80/0.05% Antifoam) and administer by oral gavage for 14 to 28 days. Tumor response is determined by tumor volume measurement performed twice a week during the course of treatment.

[2] = system: human pancreatic cancer cells SW1990; assay: Xenograft tumor model SW1990; type: in vivo, female athymic nude mice; settings: oral
Experimental: as §1, with “Measure tumor growth and body weight twice per week beginning the seventh day after the implantation. When tumor sizes reach 200-400 mm^3, randomize animals and group into groups of eight to ten animals. Prepare test compound in an appropriate vehicle (vehicle: 1% HEC/0.25% Tween 80/0.05% Antifoam) and administer by oral gavage for 14 to 28 days.” left out

[3] = system: human non-small cell lung cancer cells NCI-H358; assay: Xenograft tumor model NCI-H358; type: in vivo, female athymic nude mice; settings: oral, p <0.001
Experimental: as §1, with “Measure tumor growth and body weight twice per week beginning the seventh day after the implantation. When tumor sizes reach 200-400 mm^3, randomize animals and group into groups of eight to ten animals. Prepare test compound in an appropriate vehicle (vehicle: 1% HEC/0.25% Tween 80/0.05% Antifoam) and administer by oral gavage for 14 to 28 days.” left out

T1 sequence (P27361 whole entry): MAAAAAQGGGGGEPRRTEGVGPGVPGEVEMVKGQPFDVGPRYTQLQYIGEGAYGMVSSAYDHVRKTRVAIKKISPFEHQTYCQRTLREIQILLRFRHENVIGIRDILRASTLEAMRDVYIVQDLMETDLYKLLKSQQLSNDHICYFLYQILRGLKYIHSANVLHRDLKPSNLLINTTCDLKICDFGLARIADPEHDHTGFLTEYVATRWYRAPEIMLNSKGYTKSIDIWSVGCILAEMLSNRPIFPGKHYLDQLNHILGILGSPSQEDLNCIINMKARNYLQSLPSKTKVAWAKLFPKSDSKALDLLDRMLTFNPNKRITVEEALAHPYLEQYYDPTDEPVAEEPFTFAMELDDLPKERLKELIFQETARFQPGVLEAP
T2 sequence (P28482 whole entry): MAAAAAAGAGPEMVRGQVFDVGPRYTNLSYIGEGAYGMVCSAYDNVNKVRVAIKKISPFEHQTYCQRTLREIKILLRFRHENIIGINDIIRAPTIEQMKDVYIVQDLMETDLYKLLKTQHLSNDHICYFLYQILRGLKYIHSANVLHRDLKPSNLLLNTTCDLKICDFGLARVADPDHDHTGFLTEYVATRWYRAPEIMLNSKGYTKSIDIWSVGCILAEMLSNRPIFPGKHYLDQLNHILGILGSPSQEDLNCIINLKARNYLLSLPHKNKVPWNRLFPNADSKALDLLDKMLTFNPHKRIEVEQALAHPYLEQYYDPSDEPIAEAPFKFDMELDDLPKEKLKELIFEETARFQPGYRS

Q: How did the pIC50 (ERK1) turn out when `COCCN1C(=O)c2cc(-c3ccnc(Nc4ccnn4C)c3)sc2C1(C)C` [Example 1, 5-(2-Methoxyethyl)-6,6-dimethyl-2-{2-[(1-methyl-1H-pyrazol-5-yl)amino]pyridin-4-yl}-5,6-dihydro-4H-thieno[2,3-c]pyrrol-4-one] was run?
A: 8.82

Q: What about the pIC50 (ERK2) of the same molecule?
A: 8.71

Q: What about the “Regression (%)” value ([1]; A-375, 3 mg/kg BID) of the same molecule?
A: −60%

Q: And the “Delta T/C (%)” value ([1]; A-375, 3 mg/kg QD, p 0.852)?
A: 10%

Q: And the “Regression (%)” value ([1]; A-375, 15 mg/kg BID)?
A: −47%

Q: What about the “Delta T/C (%)” value ([2]; SW1990, 10 mg/kg BID, p 0.364) of the same molecule?
A: 24%

Q: What about the “Delta T/C (%)” value ([2]; SW1990, 30 mg/kg BID, p 0.005) of the same molecule?
A: 64%

Q: What about the “Regression (%)” value ([3]; NCI-H358, 25 mg/kg BID) of the same molecule?
A: −13%

Q: What about the “Regression (%)” value ([3]; NCI-H358, 50 mg/kg BID) of the same molecule?
A: −35%
